Measurements from patent US20140377340A1, “HLA-DR BINDING PEPTIDES AND THEIR USES” (priority 2007, published 2014).

Key:
[1] = biological target: T1, purified HLA DRB4*0101 (Homo sapiens, UniProt P01903+P13762, G164S); assay: HLA-DR radioligand binding inhibition assay, DRB4*0101; conditions: IC50 nM purified HLA DRB4 *0101, purified HLA DRB4*0101
T1 construct: purified from EBV transformed homozygous cell lines or single MHC allele transfected 721.221, C1R, or fibroblast lines; made in house
Procedure: (§1) Instead, wells of an opaque white 96-well Optiplate (Packard) are coated with 3 μg (100 μl@ 30 μg/ml) of HLA-specific antibody (Ab) that “capture” complexes of radiolabeled MHC and unlabeled peptide transferred from the molecular binding assay plate in 100 μl of 0.05% NP40/PBS. After a 3-hour incubation period, the supernatant is decanted and scintillation fluid (Microscint 20) added. Captured complexes are then measured on a microplate scintillation and luminescence counter (TopCount NXTTM; Packard).
(§2) HLA-DR purification. Fifteen distinct HLA-DR molecules were used in quantitative assays to measure the binding of peptides to solubilized HLA-DR molecules. […] Briefly, columns of inactivated Sepharose CL4B and Protein A Sepharose were used as pre-columns. HLA-DR molecules were captured by passage of lysates over LB3.1 monoclonal antibody (anti-HLA-DRA) columns. Antibody columns were washed with 10 mM Tris-HCL, pH8.0 with 1% (v/v) NP-40, followed by PBS containing 0.4% (w/v) n-octylglucoside.
(§3) Briefly, 1-10 nM of radiolabeled peptide was co-incubated for 2 days at either room temperature or 37° C. with 1 μM to 1 nM purified HLA-DR molecules in the presence of a cocktail of protease inhibitors. Assays were performed at various pH conditions, ranging from pH 4 to pH 7. […] After incubation, the percentage of HLA-DR-bound radioactivity is determined by capturing HLA-DR/peptide complexes on Optiplates (Packard Instruments, Meriden, Conn.) coated with the LB3.1 antibody and determining bound counts per minute using the TopCount microscintillation counter (Packard Instruments).

[2] = biological target: T2, purified HLA DRB1*1302 (Homo sapiens, UniProt P01903+P01911, A100E/A169T/K41T/L162R/M171V/P40S/Q125H/Q178H/Q39Y/Q99D/R42S/S66N/T262R/V115G/W38E/Y61H); assay: HLA-DR radioligand binding inhibition assay, DRB1*1302
T2 construct: purified from EBV transformed homozygous cell lines or single MHC allele transfected 721.221, C1R, or fibroblast lines; made in house
Procedure: as §1, §2, §3

[3] = biological target: T3, purified HLA DRB5*0101 (Homo sapiens, UniProt P01903+Q30154); assay: HLA-DR radioligand binding inhibition assay, DRB5*0101; conditions: IC50 nM purified HLA DRB5 *0101, purified HLA DRB5*0101
T3 construct: purified from EBV transformed homozygous cell lines or single MHC allele transfected 721.221, C1R, or fibroblast lines; made in house
Procedure: as §1, §2, §3

[4] = test system: 15 different HLA-DR molecules; assay: HLA-DR binding assays, panel of 15 different HLA-DR molecules (breadth of binding); conditions: number of the 15 HLA-DR molecules bound (binders: 1000 nM or better)
[5] = biological target: T4, purified HLA DRB1*1501 (Homo sapiens, UniProt P01903+P01911); assay: HLA-DR radioligand binding inhibition assay, DRB1*1501
T4 construct: purified from EBV transformed homozygous cell lines or single MHC allele transfected 721.221, C1R, or fibroblast lines; made in house
Procedure: as §1, §2, §3

[6] = biological target: T5, purified HLA DRB1*0401 (Homo sapiens, UniProt P01903+P01911, A100K/A169T/F76Y/I96L/K127E/L162R/M171V/N62H/P40V/Q125Y/R42H/S133A/S149N/S66Y/V115G/V209L/W38E); assay: HLA-DR radioligand binding inhibition assay, DRB1*0401; conditions: IC50 nM purified HLA DRB1 *0401, purified HLA DRB1*0401
T5 construct: purified from EBV transformed homozygous cell lines or single MHC allele transfected 721.221, C1R, or fibroblast lines; made in house
How it was run: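 The probe, 1-10 nM radiolabeled peptide, was incubated with 1 μM to 1 nM HLA-DR for 2 days in the presence of protease inhibitors.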

[7] = biological target: T6, purified HLA DRB1*0101 (Homo sapiens, UniProt P01903+P01911, A100R/D57E/F55L/F60I/F76Y/I96L/L162R/M171V/P40L/Q125E/R42F/V115G/Y59C); assay: HLA-DR radioligand binding inhibition assay, DRB1*0101; conditions: IC50 nM purified HLA DRB1 *0101, purified HLA DRB1*0101
T6 construct: purified from EBV transformed homozygous cell lines or single MHC allele transfected 721.221, C1R, or fibroblast lines; made in house
Procedure: as §1, §2, §3

[8] = biological target: T7, purified HLA DRB1*0701 (Homo sapiens, UniProt P01903+P01911, A100R/A102G/A103Q/D57E/D86V/E43K/F76Y/K127E/L162R/M171V/P40G/Q125H/Q99D/R33Q/R42Y/R54Q/S133A/S66F/T210M/V115G/Y107V/Y59L/Y89S); assay: HLA-DR radioligand binding inhibition assay, DRB1*0701; conditions: IC50 nM purified HLA DRB1 *0701, purified HLA DRB1*0701
T7 construct: purified from EBV transformed homozygous cell lines or single MHC allele transfected 721.221, C1R, or fibroblast lines; made in house
Procedure: as §1, §2, §3

| Molecule | IC50 [1] [nM] | Total XRN [4] | other results |
| --- | --- | --- | --- |
| CSCC[C@H](NC(=O)[C@H](CCC(N)=O)NC(=O)[C@H](CC(C)C)NC(=O)[C@H](CC(C)C)NC(=O)[C@H](CCC(=O)O)NC(=O)[C@H](CCC(=O)O)NC(=O)[C@@H]1CCCN1)C(=O)N[C@@H](CCC(=O)O)C(=O)N[C@@H](CC(C)C)C(=O)N[C@@H](CC(C)C)C(=O)N[C@@H](CC(C)C)C(=O)N[C@H](C(=O)N[C@@H](CC(N)=O)C(=O)N[C@@H](CCCCN)C(=O)N[C@@H](CC(C)C)C(=O)O)C(C)C [Peptide 9019.0161] | 11 |  | IC50 [2]: 44 nM; IC50 [3]: 2800 nM |
| CC(C)C[C@H](NC(=O)[C@@H]1CCCN1C(=O)[C@H](CC(C)C)NC(=O)[C@H](CC(C)C)NC(=O)[C@@H]1CCCN1C(=O)[C@H](CC(C)C)NC(=O)[C@H](CC(C)C)NC(=O)[C@@H]1CCCN1C(=O)[C@@H]1CCCN1C(=O)[C@@H]1CCCN1C(=O)[C@@H]1CCCN1C(=O)[C@H](CC(C)C)NC(=O)[C@@H]1CCCN1C(=O)[C@H](CC(C)C)NC(=O)[C@H](C)N)C(=O)O [Peptide 9019.0174] |  | 8 |  |
| EVLILVHNLPQHLFQ [Peptide 9019.0107] |  | 14 |  |

Continued, in another order:

| IC50 [1] [nM] | Total XRN [4] | Molecule | other results |
| --- | --- | --- | --- |
| 4460 |  | CC(C)C[C@H](NC(=O)[C@H](CCCNC(=N)N)NC(=O)[C@H](CCC(=O)O)NC(=O)[C@@H]1CCCN1)C(=O)N[C@@H](C)C(=O)N[C@@H](C)C(=O)N[C@@H](CS)C(=O)NCC(=O)N1CCC[C@H]1C(=O)N1CCC[C@H]1C(=O)N1CCC[C@H]1C(=O)N[C@H](C(=O)N[C@@H](C)C(=O)N1CCC[C@H]1C(=O)N1CCC[C@H]1C(=O)O)C(C)C [Peptide 9019.0179] | IC50 [5]: 4050 nM; IC50 [6]: 5550 nM; IC50 [7]: 28 nM; IC50 [8]: > 20000 nM |
|  | 12 | CC[C@H](C)[C@H](NC(=O)[C@H](CCCNC(=N)N)NC(=O)[C@H](CCC(=O)O)NC(=O)[C@H](CC(C)C)NC(=O)[C@@H](NC(=O)[C@H](CCC(N)=O)NC(=O)[C@H](CC(=O)O)NC(=O)[C@@H](N)CC(C)C)C(C)C)C(=O)N[C@@H](CO)C(=O)N[C@H](C(=O)N[C@@H](CCSC)C(=O)N[C@@H](CCCNC(=N)N)C(=O)N[C@@H](CC(C)C)C(=O)N1CCC[C@H]1C(=O)N[C@@H](CC(=O)O)C(=O)O)[C@@H](C)O [Peptide 9019.0189] |  |
|  | 6 | CSCC[C@H](NC(=O)[C@H](CCCCN)NC(=O)[C@H](CS)NC(=O)[C@H](CCC(N)=O)NC(=O)[C@H](CCCCN)NC(=O)[C@H](CC(C)C)NC(=O)[C@H](CC(N)=O)NC(=O)[C@H](Cc1ccc(O)cc1)NC(=O)[C@H](CC(C)C)NC(=O)CN)C(=O)N[C@@H](CO)C(=O)N[C@@H](CC(C)C)C(=O)N[C@@H](CC(N)=O)C(=O)NCC(=O)N[C@@H](CCC(N)=O)C(=O)O [Peptide 9019.0191] |  |
